Laboratory results published in PubChem BioAssay (NCI).
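Five compound concentrations were applied to cells in 96-well plates for 48 hours; endpoints were derived by simple linear interpolation of the resulting dose-response curve. TGI denotes the concentration required for complete inhibition of growth.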

Experiments:
Assay in all cases: inhibition of tumour cell growth, NCI panel, 48 h
[1] = tested on: 786-0 renal
[2] = tested on: A549 NSCLC
[3] = tested on: ACHN renal
[4] = tested on: CAKI-1 renal
[5] = tested on: CCRF-CEM leukemia
[6] = tested on: COLO 205 colon
[7] = tested on: DLD-1 colon
[8] = tested on: EKVX NSCLC
[9] = tested on: HCC-2998 colon
[10] = tested on: HCT-116 colon
[11] = tested on: HL-60(TB) leukemia
[12] = tested on: HOP-62 NSCLC
[13] = tested on: HOP-92 NSCLC
[14] = tested on: HT29 colon
[15] = tested on: IGROV1 ovarian
[16] = tested on: K-562 leukemia
[17] = tested on: KM20L2 colon
[18] = tested on: LOX IMVI melanoma
[19] = tested on: LXFL 529 NSCLC
[20] = tested on: M14 melanoma
[21] = tested on: M19-MEL melanoma
[22] = tested on: MALME-3M melanoma
[23] = tested on: NCI-H226 lung
[24] = tested on: NCI-H23 lung
[25] = tested on: NCI-H522 lung
[26] = tested on: OVCAR-3 ovarian
[27] = tested on: OVCAR-4 ovarian
[28] = tested on: OVCAR-5 ovarian
[29] = tested on: RPMI-8226 leukemia
[30] = tested on: RXF 393 renal
[31] = tested on: SF-268 CNS
[32] = tested on: SF-295 CNS
[33] = tested on: SF-539 CNS
[34] = tested on: SK-MEL-2 melanoma
[35] = tested on: SK-MEL-28 melanoma
[36] = tested on: SK-OV-3 ovarian
[37] = tested on: SN12C renal
[38] = tested on: SNB-19 CNS
[39] = tested on: SNB-75 CNS
[40] = tested on: SW-620 colon
[41] = tested on: TK-10 renal
[42] = tested on: UACC-257 melanoma
[43] = tested on: UACC-62 melanoma
[44] = tested on: XF 498 CNS
[45] = tested on: DMS 114 small cell lung
[46] = tested on: DMS 273 small cell lung
[47] = tested on: HOP-18 NSCLC
[48] = tested on: KM12 colon
[49] = tested on: MOLT-4 leukemia
[50] = tested on: NCI-H460 lung
[51] = tested on: OVCAR-8 ovarian
[52] = tested on: SNB-78 CNS
[53] = tested on: SR leukemia
[54] = tested on: U251 CNS
[55] = tested on: UO-31 renal
[56] = tested on: A498 renal
[57] = tested on: HCT-15 colon
[58] = tested on: SK-MEL-5 melanoma

Measured: TGI

CN(C)/N=C(\CCN1CCCC1)CC(c1ccccc1)c1c(O)c2ccccc2oc1=O (stereo unspecified)
72.9 µM: [11]
> 100 µM: [1] | [2] | [3] | [4] | [5] | [6] | [7] | [8] | [9] | [10] | [12] | [13] | [14] | [15] | [16] | [17] | [18] | [19] | [20] | [21] | [22] | [23] | [24] | [25] | [26] | [27] | [28] | [29] | [30] | [31] | [32] | [33] | [34] | [35] | [36] | [37] | [38] | [39] | [40] | [41] | [42] | [43] | [44]

CC(=O)OC1CC2OC(Cc3ccccc32)O1 (stereo unspecified)
63.7 µM: [22]
94.9 µM: [47]
81.6 µM: [33]
> 100 µM: [1] | [2] | [3] | [5] | [6] | [7] | [45] | [46] | [8] | [9] | [10] | [11] | [12] | [13] | [14] | [15] | [16] | [48] | [17] | [18] | [19] | [20] | [21] | [49] | [23] | [24] | [50] | [25] | [26] | [51] | [29] | [30] | [31] | [32] | [34] | [35] | [36] | [37] | [38] | [39] | [52] | [53] | [40] | [41] | [54] | [42] | [43] | [55] | [44]

O=C(/C=C/c1ccccc1Cl)c1ccccc1Cl
39.1 µM: [9]
29.3 µM: [48]
44.4 µM: [8]
26.2 µM: [40]
47.1 µM: [11]
69.2 µM: [52]
28 µM: [57]
30.8 µM: [54]
89.2 µM: [47]
99.1 µM: [58]
33.3 µM: [15] | [17]
52.9 µM: [24]
51.2 µM: [32]
33.9 µM: [26]
31.1 µM: [3] | [46]
36 µM: [50]
33.4 µM: [7]
74.9 µM: [39]
61.5 µM: [2]
32.8 µM: [38]
41.3 µM: [14] | [27]
28.8 µM: [1]
69.4 µM: [22]
32 µM: [19]
46.4 µM: [28]
47.2 µM: [20]
50.5 µM: [31]
36.5 µM: [35]
44.8 µM: [6]
33.6 µM: [51]
34.3 µM: [55]
47.7 µM: [16]
28.5 µM: [10]
> 100 µM: [56] | [12] | [23] | [36] | [41]
60.4 µM: [42]
61 µM: [21]
41.4 µM: [37]
38.1 µM: [4] | [25]
36.7 µM: [33] | [43]
60 µM: [49]
77.2 µM: [13]
44.9 µM: [5]
34.8 µM: [45]
44.7 µM: [29]

CC1=CC(=O)NCCN1C
> 100 µM: [1] | [56] | [2] | [3] | [4] | [5] | [6] | [7] | [45] | [46] | [8] | [9] | [10] | [57] | [11] | [47] | [12] | [13] | [14] | [15] | [16] | [48] | [17] | [18] | [19] | [20] | [21] | [22] | [49] | [23] | [24] | [50] | [25] | [26] | [27] | [28] | [51] | [30] | [31] | [32] | [33] | [34] | [35] | [58] | [36] | [37] | [38] | [39] | [52] | [53] | [40] | [41] | [54] | [42] | [43] | [55] | [44]
